These results are taken from ChEMBL document CHEMBL3243950, “New inhibitors of steroid 11beta-hydroxylase. Structure--activity relationship studies of metyrapone-like compounds” (J Med Chem, 1977).

Series [1] concerns the target T1, Cytochrome P450 11B1, mitochondrial (Bos taurus, UniProt P15150).
T1 sequence (P15150 whole entry): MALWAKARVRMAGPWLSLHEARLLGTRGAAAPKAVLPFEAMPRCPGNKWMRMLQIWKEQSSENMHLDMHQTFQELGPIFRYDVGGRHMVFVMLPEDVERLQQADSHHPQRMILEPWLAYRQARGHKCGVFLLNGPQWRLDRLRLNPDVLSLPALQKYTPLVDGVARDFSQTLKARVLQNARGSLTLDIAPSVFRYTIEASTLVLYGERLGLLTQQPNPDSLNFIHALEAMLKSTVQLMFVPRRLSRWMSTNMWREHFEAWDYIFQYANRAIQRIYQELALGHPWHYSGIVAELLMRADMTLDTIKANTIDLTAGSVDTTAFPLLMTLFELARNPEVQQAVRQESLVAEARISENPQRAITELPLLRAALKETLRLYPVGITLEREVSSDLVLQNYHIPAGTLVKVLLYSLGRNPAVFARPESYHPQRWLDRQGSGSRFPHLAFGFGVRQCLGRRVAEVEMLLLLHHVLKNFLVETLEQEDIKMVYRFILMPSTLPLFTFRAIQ
As to the kind of experiment: Inhibition of bovine adrenal gland 11beta-hydroxylase assessed as inhibition of [14C]-deoxycorticosterone hydroxylation at 2 uM. The settings on record: cattle.

Series [2] addresses T1, Cytochrome P450 11B1, mitochondrial. Briefly: Inhibition of bovine adrenal gland 11beta-hydroxylase assessed as inhibition of [14C]-deoxycorticosterone hydroxylation at 2 uM relative to metyrapone. The settings on record: cattle.
The target is the same in series [3]. Briefly: Inhibition of bovine adrenal gland 11beta-hydroxylase assessed as amount of corticosterone production using 22 nmol [14C]-deoxycorticosterone measured per 5 mins at 2 nmol. The settings on record: cattle.
Series [4] has the same target. As to the kind of experiment: Inhibition of bovine adrenal gland 11beta-hydroxylase assessed as inhibition of [14C]-deoxycorticosterone hydroxylation.
The target is the same in series [5]. As to the kind of experiment: Inhibition of bovine adrenal gland 11beta-hydroxylase assessed as amount of corticosterone production using 11 nmol [14C]-deoxycorticosterone measured per 5 mins at 2 nmol (reference value: 1.3 +/- 0.04 nmol). The settings on record: cattle.
Series [6] has the same target. As to the kind of experiment: Inhibition of bovine adrenal gland 11beta-hydroxylase assessed as amount of corticosterone production using 22 nmol [14C]-deoxycorticosterone measured per 5 mins at 2 nmol (reference value: 1.3 +/- 0.04 nmol). The settings on record: cattle.
Series [7] shares this target. Briefly: Inhibition of bovine adrenal gland 11beta-hydroxylase assessed as amount of corticosterone production using 11 nmol [14C]-deoxycorticosterone measured per 5 mins at 2 nmol. The settings on record: cattle.

A word on the inhibition: it is the relative decrease from the control value, in per cent. On to `O=C(c1cccnc1)C(c1ccccc1)c1cccnc1` (stereo not drawn), for which the inhibition at 2 µM in series [1] turned out to be 35%. Further, the Ratio in series [2] is reported as 0.52.
In the same order, the values of `O=C(c1ccccc1)C(c1ccccc1)c1cccnc1` (stereo not drawn) are 22% and 0.32.
For `O=C(c1cccnc1)C(c1ccccc1)c1ccccc1`, in that order: 15% and 0.22.
Turning to `O=C(Cc1ccccc1)c1cccnc1`, the inhibition at 2 µM in series [1] turned out to be 9%. In series [2], the Ratio is 0.13.
In the same order, the values of `CC(C(=O)c1cccnc1)c1ccccc1` (stereo not drawn) are 13% and 0.19.
In the same order, the values of `OC(c1ccccc1)C(c1ccccc1)c1cccnc1` (stereo not drawn) are 44% and 0.65.
For `OC(c1cccnc1)C(c1ccccc1)c1ccccc1` (stereo not drawn), in that order: 17% and 0.25.
On to `CC(C(=O)c1ccccc1)c1cccnc1` (stereo not drawn), for which the inhibition at 2 µM in series [1] was 44%. Also, the Ratio in series [2] is 0.65.
Regarding `O=C(Cc1cccnc1)c1ccccc1`, the inhibition at 2 µM in series [1] came out at 15%. The Ratio in series [2] amounted to 0.22.
In the same order, the values of `OC(c1cccnc1)C(c1ccccc1)c1cccnc1` (racemic) are 9% and 0.13.
On to `OC(Cc1cccnc1)c1cccnc1` (racemic), for which the inhibition at 2 µM in series [1] came out at 7%. For the same compound, the Ratio in series [2] stood at 0.1.
Regarding `C[C@@H](c1cccnc1)[C@@H](O)c1cccnc1` (relative stereo), in series [1], the inhibition at 2 µM is 28%. For the same compound, in series [2], the Ratio was 0.41.
With `CC(C)(c1cccnc1)C(O)c1cccnc1` (stereo not drawn) [METYRAPOL], the inhibition at 2 µM in series [1] came to 44%. In addition, the Ratio in series [2] was 0.65.
A word on the Ki: it is the equilibrium dissociation constant of an inhibitor or competing ligand from its target. As to `CC(C)(C(=O)c1cccnc1)c1cccnc1` [METYRAPONE], the “inhibition (INH)” value in series [3] came out at 68%; in series [7], 70%. For the same compound, in series [4], the Ki was 580 nM. Further, the inhibition at 2 µM in series [1] came to 68%. The Activity in series [5] was 0.39 nmol; in series [6], 0.74 nmol. Besides, the Ratio in series [2] was determined as 1.
